One series can be described thus: LD20 in the P388/0 test. The series is classed as in vivo, mouse (CD2-F1). The settings on record: ip, days 1, 5 and 9. As for the experimental part:
(§1) CD2-F1 mice, of the same sex, weighing 20±3 g, are used for this test. Control and test animals are injected intraperitoneally with a suspension of ~10^6 viable P388/0 tumor cells on day 0. In each test, several dose levels which bracket the LD20 of the compound are evaluated; each dose level group contains six animals. The test compounds are prepared either in physiologic saline containing 0.05% Tween 80 or distilled water containing 5% dextrose and are administered intraperitoneally on days 1, 5, and 9 relative to tumor implant. Doses are on a mg/kg basis according to individual animals' body weights. The day of death for each animal is recorded, the median identified for each group and the ratios of median survival time for treated (T)/control (C) groups are calculated. The criterion for activity is T/C×100≥120%.
^A Values in parentheses are the highest nontoxic dose where the
LD20 was not determined.

Series [1] deals with P388/0 tumor cells (lymphocytic leukemia). The series is described as follows: Lymphocytic Leukemia P388/0 Test (survival of tumor-bearing mice). It counts as in vivo, mouse (CD2-F1). The settings on record: ip, days 1, 5, 9; at optimal dose (mg/kg): 1B 121; 1C 115; 2 100; 3 100; 6G 65; 18B 88; 19H 110; 6H 60; 7 110; 9 300; 10B 1013; 11C 150; 12G 90; 5F 225; 13D 303; 14 196; 15B 250; 16 1012; 4B 180; active if ≥120%.
Description: (§2) Methods for evaluating the antitumor activity of these compounds are essentially those used in the Tumor Panel by the Developmental Therapeutics Program, Division of Cancer Treatment, National Cancer Institute, A. Goldin, et al., Methods in Cancer Research, Vol. XVI, p. 165, Academic Press (1979). Some modifications, in dose level and schedule have been made to increase the testing efficiency.
as §1

For the next series, the system named is B16 melanoma cells. Briefly: Melanotic Melanoma B16 test (survival). It counts as in vivo, mouse (B6C3-F1). The settings on record: B16 ip; drug ip days 1, 5, 9; dose (mg/kg): 1C 100; 6G 50; 3 70; 2 75; 18B 70; active if >125%.
Description: as §2
B6C3-F1 mice of the same sex, weighing 20±3 g, are used for this test. A suspension of B16 cells is prepared from a non-necrotic portion of solid tumor tissue obtained from a passage mouse. One gram of tumor is homogenized in 9 mL ice-cold Earle's salts solution and filtered through 1000 mesh screen to remove debris. 0.5 mL of the resulting brei is injected intraperitoneally into each animal. Dosing is carried out as in the P388/0 and L1210 tests. Days of death are recorded for a 60 day period and T/C ratio calculated as in the P388/0 and L1210 tests. The criterion for activity is T/C×100>125%.

Another series deals with Colon 38 carcinoma. The series is described as follows: Colon 38 Carcinoma Test (tumor weight). It counts as in vivo, mouse (tumor from C57B1/6). Particulars: ip, days 1, 5, 9; dose 120 mg/kg; day 20; active if ≤42%.
Description: as §2
This chemically-induced tumor arose in a C57B1/6 mouse and is maintained as a solid tumor in that mouse strain. The subcutaneously growing solid tumor is aseptically excised from passage mice and placed in sterile saline. The tumor is trimmed free of visible necrotic and connective tissue, then divided into 2-3 mm cubes. A cube is implanted subcutaneously in the ventral thoracic region with a sterile trochar on day 0. In each test several dose levels which bracket the LD20 for the compound are evaluated. Ten animals are included in each dose level group and thirty animals in the untreated control group. The test compounds are prepared either in physiologic saline containing 0.05% Tween 80 or distilled water containing 5% dextrose and are administered intraperitoneally on days 1, 5 and 9 after tumor implant. […] At day 20, the animals are sacrificed and the longest (L) and shortest (W) dimensions of each tumor measured with vernier calipers. Tumor weight is calculated from the formula [formula] […]

The structures appear in SMILES notation. Structures can show the parent of a compound that is named as a salt.

On to `OCC(CO)NCc1cc2c3ccccc3ccc2c2ccccc12` [Example 14, 2-((6-chrysenylmethyl)amino)-1,3-propanediol methanesulfonate], for which the LD20 in the series “LD20 in the P388/0 test” was found to be 160 mg/kg.
On the same count and under the same terms, the result for `CC(C)(CO)NCc1cc2c3ccccc3ccc2c2ccccc12.Cl` [Example 18B, 2-((6-chrysenylmethyl)amino)-2-methyl-1-propanol hydrochloride] reads 80 mg/kg.
With `CS(=O)(=O)O.C[C@H](O)[C@@](C)(CO)NCc1cc2c3ccccc3ccc2c2ccccc12` (relative stereo) [Example 6H, (+-)(2R*,3S*)-2-((6-chrysenylmethyl)amino)-2-methyl-1,3-butanediol methanesulfonate], the “T/C × 100% (Excluding 30 Day Survivors), median survival time treated/control” value in series [1] is recorded as “+235%”. For the same compound, the LD20 in “LD20 in the P388/0 test” is 60 mg/kg.
Regarding `C[C@@H](O)C(C)(NCc1cc2c3ccccc3ccc2c2ccccc12)[C@@H](C)O` (relative stereo) [Example 5F], the “T/C × 100% (Excluding 30 Day Survivors), median survival time treated/control” value in series [1] was “+255%”.
Take `CC(CO)(CCO)NCc1cc2c3ccccc3ccc2c2ccccc12` (stereo not drawn) [Example 12G, 2-((6-chrysenylmethyl)amino)-2-methyl-1,4-butanediol hydrochloride.1/3EtOH]: the LD20 in the series “LD20 in the P388/0 test” is recorded as 90 mg/kg.
With `O[C@@H]1CCC[C@H](O)[C@H]1NCc1cc2c3ccccc3ccc2c2ccccc12` [Example 10B, (1α,2β,3α)-2-((6-chrysenylmethyl)amino)-1,3-cyclohexanediol hydrochloride], the “T/C × 100% (Excluding 30 Day Survivors), median survival time treated/control” value in series [1] is listed as “+205%”.
As for `C[C@H](O)[C@@](C)(CO)NCc1cc2c3ccccc3ccc2c2ccccc12` (relative stereo) [Example 6G, (+-)(2R*,3S*)-2-((6-chrysenylmethyl)amino)-2-methyl-1,3-butanediol hydrochloride.1/3H2 O], the “T/C × 100% (Excluding 30 Day Survivors), median survival time treated/control” value in series [1] was “+245%”. In the series “LD20 in the P388/0 test”, this compound registered an LD20 of 53 mg/kg. Besides, the “T/C × 100% Excluding 60 day Survivors” value with B16 melanoma cells is reported as “+160%”.
Regarding `Cl.OCC(CO)(CO)NCc1cc2c3ccccc3ccc2c2ccccc12` [Example 2, 2-((6-chrysenylmethyl)amino)-2-hydroxymethyl-1,3-propanediol hydrochloride], the LD20 in the series “LD20 in the P388/0 test” is 100 mg/kg.
`CS(=O)(=O)O.C[C@H](O)C(NCc1cc2c3ccccc3ccc2c2ccccc12)[C@@H](C)O` (stereo partly drawn) [Example 13D, meso-3-((6-chrysenylmethyl)amino)-2,4-pentanediol methanesulfonate]: the “T/C × 100% (Excluding 30 Day Survivors), median survival time treated/control” value in series [1] is given as “+200%”.
`C[C@@H](O)[C@@](C)(CO)NCc1cc2c3ccccc3ccc2c2ccccc12.Cl` (relative stereo) [Example 7, (+-)-(2R*,3R*)-2-((6-chrysenylmethyl)amino)-2-methyl-1,3-butanediol hydrochloride]: the “T/C × 100% (Excluding 30 Day Survivors), median survival time treated/control” value in series [1] is on record as “+285%”. In the series “LD20 in the P388/0 test”, this compound showed an LD20 of 100 mg/kg.
Turning to `CC(C)C(CO)(CO)NCc1cc2c3ccccc3ccc2c2ccccc12` [Example 11C, 2-((6-chrysenylmethyl)amino)-2-isopropyl-1,3-propanediol hydrochloride.H2 O], the LD20 in the series “LD20 in the P388/0 test” was determined as 150 mg/kg.
On to `CC(CO)(CO)NCc1cc2c3ccccc3ccc2c2ccccc12` [Example 1C, 2-((6-chrysenylmethyl)amino)-2-methyl-1,3-propanediol methanesulfonate], for which the “T/C × 100% (tumor weight)” value with Colon 38 carcinoma is reported as 36%.
The compound `CCC(CO)(CO)NCc1cc2c3ccccc3ccc2c2ccccc12.Cl` [Example 3, 2-((6-chrysenylmethyl)amino)-2-ethyl-1,3-propanediol hydrochloride] showed an LD20 in the series “LD20 in the P388/0 test” of 100 mg/kg.
As to `CC(CO)(CO)NCc1cc2c3ccccc3c(Cl)cc2c2ccccc12` [Example 4B, 2-(((12-chloro-6-chrysenyl)methyl)amino)-2-methyl-1,3-propanediol methanesulfonate.1/3H2 O], the “T/C × 100% (Excluding 30 Day Survivors), median survival time treated/control” value in series [1] is “+155%”. The compound further gave an LD20 in the series “LD20 in the P388/0 test” of 180 mg/kg.
`CC(CO)(CO)NCc1ccc2ccc3c4ccccc4ccc3c2c1` [Example 19H, 2-((3-chrysenylmethyl)amino)-2-methyl-1,3-propanediol methanesulfonate] came in with an LD20 in the series “LD20 in the P388/0 test” of 150 mg/kg.
Still for that read-out and setting: for `CCc1cc2c3ccccc3c(CNC(C)(CO)CO)cc2c2ccccc12` [Example 15B, 2-(((12-ethyl-6-chrysenyl)methyl)amino)-2-methyl-1,3-propanediol methanesulfonate] the value was 150 mg/kg.
On to `COCC(C)(CO)NCc1cc2c3ccccc3ccc2c2ccccc12.Cl` (stereo not drawn) [Example 9D, 3-methoxy-2-((6-chrysenylmethyl)amino)-2-methyl-1-propanol hydrochloride], for which the “T/C × 100% (Excluding 30 Day Survivors), median survival time treated/control” value in series [1] was “+181%”.
As to `CC(=O)OCC(C)(COC(C)=O)NCc1cc2c3ccccc3ccc2c2ccccc12` [Example 16, 2-((6-chrysenylmethyl)amino)-2-methyl-1,3-propanediol diacetate], the “T/C × 100% (Excluding 30 Day Survivors), median survival time treated/control” value in series [1] is recorded as “+145%”.
Turning to `CC(CO)(CO)NCc1cc2c3ccccc3ccc2c2ccccc12.Cl` [Example 1B, 2-((6-chrysenylmethyl)amino)-2-methyl-1,3-propanediol hydrochloride], the LD20 in the series “LD20 in the P388/0 test” is on record as 140 mg/kg.

For the origin of these results see patent US4719048A, “Crysene compound” (Burroughs Wellcome Co., priority 1984, dated 1988).
